Measurements published in US4775674A, “Imidazoquinolinylether derivatives useful as phosphodiesterase and blood aggregation inhibitors” (Bristol-Myers Company, priority 1986, dated 1988).
Values after ≈ are worked out from the molar mass of the structure shown. Like-named read-outs stand apart in the source and are kept apart here.

Columns and labels:
[1] = system: adenosine diphosphate (ADP)-induced platelet aggregation; test: In vitro inhibition of platelet aggregation, ADP-induced (rabbit platelet rich plasma); assay type: cell-based; conditions: Oryctolagus cuniculus, ADP 0.5 mcg/ml, read-out: Platelet Inhibition In Vitro - Rabbit PRP EC50 vs. ADP
Description: (§1) The aggregometer method of Born (1), as modified by Mustard, et al. (2) was used to assess the in vitro activity of the various compounds as to inhibition of adenosine diphosphate (ADP) and collagen-induced platelet aggregation. Platelet rich plasma (PRP) was separated by centrifugation from citrated (3.8 percent) rabbit blood. […] The various compounds tested were dissolved in dimethylsulfoxide (DMSO) so that 5 mcl added to the platelet rich plasma would yield the desired test concentration. Vehicle control trials were done and compared with aggregation induced in platelet rich plasma containing various concentrations of the test compounds. Dose response curves were obtained and Effective Concentration (EC50) values calculated.

[2] = system: collagen-induced platelet aggregation; test: In vitro inhibition of platelet aggregation, collagen-induced (rabbit platelet rich plasma); assay type: cell-based; conditions: Oryctolagus cuniculus, collagen suspension 0.05 ml, read-out: Platelet Inhibition In Vitro - Rabbit PRP EC50 vs. collagen
Description: as §1

[3] = system: platelet aggregation (Ex Vivo vs. ADP); test: Inhibition of platelet aggregation following oral administration (Ex vivo); assay type: in vivo; conditions: Rattus norvegicus, rats, oral by gavage, 2 hours after dosing
Description: This test is sometimes referred to in the art as an Ex vivo method and was initially described by Fleming, et al., Arch. Int. Pharmacodyn. Ther., 199, 164 (1972). Briefly, the assay is essentially carried out as follows.
Aggregometry is performed in vitro as previously described on platelet rich plasma samples obtained from rats dosed with either test compounds or the vehicle. In all cases, activity is determined 2 hours after the drug is administered orally at various doses by gavage as a suspension in […] plus a few drops of Tween 20.

[4] = target: T1, cAMP phosphodiesterase (human platelets) (Homo sapiens, UniProt Q14432); test: Inhibition of cyclic AMP phosphodiesterase; assay type: biochemical; conditions: PDE from human platelets
T1 construct: enzynme obtained from human platelets; from tissue; host or cells: human platelets
Description: This assay is carried out essentially as described by Thompson, et al., Methods in Enzymology, 38, 205-212 (1974). Briefly, tritium labeled cyclic adenosine monophosphate (cAMP) is incubated with a phosphodiesterase (PDE) enzynme obtained from human platelets which converts a portion of the cAMP to 5'AMP in culture tubes. This reaction is terminated by submerging the tubes in a boiling water bath after which they are placed on ice and an aliquot of snake venom is added to each tube. This, during a second incubation, converts the 5'AMP to adenosine. Ion exchange resin is added to bind the remaining cyclic AMP. The tubes are centrifuged to sediment the resin and a portion of the clear supernatent (which contains radioactive adenosine) is counted in a liquid scintillation counter. The cAMP phosphodiesterase inhibition activity of a test agent is determined by pre-incubating the PDE enzyme preparation with the test agent.

[5] = system: ferrets (right ventricular contractile force, blood pressure); test: In vivo inotropic activity in ferrets; set-up: species or system ferret; conditions: Mustela putorius, 1 h, anesthetized ferret, intraduodenal, 60 minutes
Description: This test is carried out in ferrets as follows. Fasted anesthetized ferrets are instrumented to study hemodynamic parameters as well as right ventricular contractile force (RVCF) using a Walton-Brodie open strain guage arch. Drugs are administered intraduodenally as solutions in DMSO (1 mL or less) and effects on myocardial contractile force and other parameters are monitored for 60 minutes after dosing. Changes in contractile force in response to drug treatment are expressed in terms of percent change from predose control.

[6] = vs predose control, read-out: Maximum Percentage Change Right Ventricular Contractile Force (RVCF)
[7] = read-out: Maximum Percentage Change Blood Pressure

T1 sequence (Q14432 whole entry): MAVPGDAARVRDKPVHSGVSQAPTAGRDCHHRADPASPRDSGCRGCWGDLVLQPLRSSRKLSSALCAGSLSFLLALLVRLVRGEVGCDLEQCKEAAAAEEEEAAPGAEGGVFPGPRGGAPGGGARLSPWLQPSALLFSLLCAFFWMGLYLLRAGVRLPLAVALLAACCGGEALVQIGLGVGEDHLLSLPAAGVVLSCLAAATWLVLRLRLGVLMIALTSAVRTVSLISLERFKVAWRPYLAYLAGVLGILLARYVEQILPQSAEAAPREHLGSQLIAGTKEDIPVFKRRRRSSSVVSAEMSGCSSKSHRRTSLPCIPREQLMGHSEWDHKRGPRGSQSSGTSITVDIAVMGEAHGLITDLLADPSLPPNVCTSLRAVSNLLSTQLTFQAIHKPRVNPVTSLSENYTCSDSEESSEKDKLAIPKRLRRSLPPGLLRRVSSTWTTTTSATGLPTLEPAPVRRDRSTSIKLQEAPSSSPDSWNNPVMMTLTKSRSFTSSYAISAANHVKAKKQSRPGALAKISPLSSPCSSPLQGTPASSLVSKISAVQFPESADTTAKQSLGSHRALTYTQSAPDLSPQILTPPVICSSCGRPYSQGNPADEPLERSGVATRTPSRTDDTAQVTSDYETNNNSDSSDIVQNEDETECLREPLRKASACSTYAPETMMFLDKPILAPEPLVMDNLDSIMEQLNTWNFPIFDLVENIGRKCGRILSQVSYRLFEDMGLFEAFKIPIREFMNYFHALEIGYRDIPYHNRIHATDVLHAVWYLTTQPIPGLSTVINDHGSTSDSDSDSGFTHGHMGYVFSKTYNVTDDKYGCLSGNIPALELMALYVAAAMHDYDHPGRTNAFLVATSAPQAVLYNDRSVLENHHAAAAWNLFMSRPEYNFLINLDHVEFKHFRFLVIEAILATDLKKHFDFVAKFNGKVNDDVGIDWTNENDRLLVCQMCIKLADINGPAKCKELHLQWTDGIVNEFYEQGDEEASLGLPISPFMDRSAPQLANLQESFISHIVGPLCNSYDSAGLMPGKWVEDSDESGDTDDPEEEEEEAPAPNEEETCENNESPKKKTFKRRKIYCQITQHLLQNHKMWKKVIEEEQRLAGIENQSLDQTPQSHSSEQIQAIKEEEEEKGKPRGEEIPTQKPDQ

Q: What does the source list for `O=C(CCCOc1ccc2nc3[nH]c(=O)[nH]c3cc2c1)NC12CC3CC(CC(C3)C1)C2` [Example 16, 4-[(2,3-Dihydro-2-oxo-1H-imidazo[4,5-b]quinolin-7-yl)oxy]-N-(tricyclo[3.3.1^3,7]decan-7-yl)butanamide]?
A: EC50 [1]: 50 ng/mL (≈ 0.119 µM); EC50 [2]: 20 ng/mL (≈ 0.0476 µM); ED50 [3]: 4 mg/kg; IC50 [4]: 1 nM; change in vivo at 3 mg/kg [5, 6]: 6 ± 3%; change in vivo at 3 mg/kg [5, 7]: -10 ± 4%

Q: Which EC50 [1] does the source give for `CN(C(=O)CCCCOc1ccc2nc3[nH]c(=O)[nH]c3cc2c1)C1CCCCC1` [Example 32, N-Cyclohexyl-N-methyl-5-[(2,3-dihydro-2-oxo-1H-imidazo[4,5-b]quinolin-7-yl)oxo]pentanamide] here?
A: Its EC50 is 3 ng/mL (≈ 0.00757 µM).

Q: What about the EC50 [2] of the same molecule?
A: Its EC50 is 0.8 ng/mL (≈ 0.00202 µM).

Q: What about the ED50 [3] of the same molecule?
A: Its ED50 is 3.8 mg/kg.

Q: What about the IC50 [4] of the same molecule?
A: The IC50 was 2 nM.

Q: And the change in vivo at 0.3 mg/kg [5, 6]?
A: The change in vivo at 0.3 mg/kg was 18 ± 4%.

Q: What about the change in vivo at 0.3 mg/kg [5, 7] of the same molecule?
A: The change in vivo at 0.3 mg/kg was -27 ± 10%.

Q: `Cn1c(=O)[nH]c2nc3ccc(OCCCC(=O)NC4CCCCC4)cc3cc21` [Example 19, N-Cyclohexyl-4-[(2,3-dihydro-1-methyl-2-oxo 1H-imidazo[4,5-b]quinolin-7-yl)oxy]butanamide] was tested. Which EC50 [1] did it give?
A: Its EC50 is 70 ng/mL (≈ 0.183 µM).

Q: And the EC50 [2]?
A: The EC50 was 9 ng/mL (≈ 0.0235 µM).

Q: What about the ED50 [3] of the same molecule?
A: Its ED50 is 8.3 mg/kg.

Q: And the IC50 [4]?
A: The IC50 was 700 nM.

Q: `CN(C(=O)CCCOc1ccc2nc3nc(O)n(C)c3cc2c1)C1CCCCC1` [Example 31, N-Cyclohexyl-N-methyl-4-[(2,3-dihydro-1-methyl-2-oxo-1H-imidazo[4,5-b]quinolin-7-yl]oxo]butanamide] was tested. Which EC50 [1] did it give?
A: Its EC50 is 20 ng/mL (≈ 0.0504 µM).

Q: And the EC50 [2]?
A: Its EC50 is 18 ng/mL (≈ 0.0454 µM).

Q: And the ED50 [3]?
A: Its ED50 is 2.1 mg/kg.

Q: And the IC50 [4]?
A: Its IC50 is 200 nM.

Q: What about the change in vivo at 0.3 mg/kg [5, 6] of the same molecule?
A: The change in vivo at 0.3 mg/kg was 0%.

Q: And the change in vivo at 0.3 mg/kg [5, 7]?
A: Its change in vivo at 0.3 mg/kg is -28 ± 5%.

Q: And the change in vivo at 3 mg/kg [5, 6]?
A: The change in vivo at 3 mg/kg was 3 ± 6%.

Q: What about the change in vivo at 3 mg/kg [5, 7] of the same molecule?
A: The change in vivo at 3 mg/kg was -36 ± 3%.

Q: With `CN(C(=O)CCCCOc1ccc2nc3[nH]c(=O)[nH]c3cc2c1)C1CCCCCC1` [Example 33, N-Cycloheptyl-N-methyl-5-[(2,3-dihydro-2-oxo-1H-imidazo[4,5-b]quinolin-7-yl)oxy]pentanamide] as the molecule, how does the EC50 [1] read?
A: Its EC50 is 2 ng/mL (≈ 0.00487 µM).

Q: And the EC50 [2]?
A: Its EC50 is 0.6 ng/mL (≈ 0.00146 µM).

Q: What about the ED50 [3] of the same molecule?
A: The ED50 was 1.7 mg/kg.

Q: And the IC50 [4]?
A: Its IC50 is 0.4 nM.

Q: What about the change in vivo at 0.3 mg/kg [5, 6] of the same molecule?
A: Its change in vivo at 0.3 mg/kg is 27 ± 8%.

Q: What about the change in vivo at 0.3 mg/kg [5, 7] of the same molecule?
A: Its change in vivo at 0.3 mg/kg is -34 ± 2%.

Q: Which EC50 [1] does the source give for `COC(=O)CN(C(=O)CCCOc1ccc2nc3[nH]c(=O)[nH]c3cc2c1)C1CCCCC1` [Example 21, N-Cyclohexyl-N-[4-[(2,3-dihydro-2-oxo-1H-imidazo[4,5-b]quinolin-7-yl)oxy]-1-oxobutyl]glycine Methyl Ester] here?
A: Its EC50 is 2.5 ng/mL (≈ 0.00568 µM).

Q: What about the EC50 [2] of the same molecule?
A: Its EC50 is 0.8 ng/mL (≈ 0.00182 µM).

Q: What about the ED50 [3] of the same molecule?
A: Its ED50 is less than 3 mg/kg.

Q: And the IC50 [4]?
A: Its IC50 is 0.5 nM.

Q: What about the change in vivo at 3 mg/kg [5, 6] of the same molecule?
A: The change in vivo at 3 mg/kg was 26%.

Q: And the change in vivo at 3 mg/kg [5, 7]?
A: Its change in vivo at 3 mg/kg is -26%.

Q: `COC(=O)CCCOc1ccc2nc3[nH]c(=O)[nH]c3cc2c1` [Example 10, Methyl 4-[(2,3-Dihydro-2-oxo-1H-imidazo[4,5-b]quinolin-7-yl)oxy]butanoate] was tested. Which EC50 [1] did it give?
A: The EC50 was 20 ng/mL (≈ 0.0664 µM).

Q: And the EC50 [2]?
A: Its EC50 is 6 ng/mL (≈ 0.0199 µM).

Q: And the ED50 [3]?
A: Its ED50 is 4.4 mg/kg.

Q: What about the IC50 [4] of the same molecule?
A: The IC50 was 400 nM.

Q: And the change in vivo at 0.3 mg/kg [5, 6]?
A: The change in vivo at 0.3 mg/kg was 9 ± 10%.

Q: What about the change in vivo at 0.3 mg/kg [5, 7] of the same molecule?
A: The change in vivo at 0.3 mg/kg was -14 ± 9%.

Q: And the change in vivo at 3 mg/kg [5, 6]?
A: Its change in vivo at 3 mg/kg is -9 ± 1%.

Q: And the change in vivo at 3 mg/kg [5, 7]?
A: Its change in vivo at 3 mg/kg is -14 ± 8%.

Q: What does the source list for `CN(C(=O)CCCOc1ccc2nc3[nH]c(=O)[nH]c3cc2c1)C1CCCCC1` [Example 30, N-Cyclohexyl-N-methyl-4-[(2,3-dihydro-2-oxo-1H-imidazo[4,5-b]quinolin-7-yl)oxy]butanamide]?
A: EC50 [1]: 2 ng/mL (≈ 0.00523 µM); EC50 [2]: 1 ng/mL (≈ 0.00261 µM); ED50 [3]: 2.4 mg/kg; IC50 [4]: 2 nM; change in vivo at 0.03 mg/kg [5, 6]: 8 ± 2%; change in vivo at 0.03 mg/kg [5, 7]: -3%; change in vivo at 0.3 mg/kg [5, 6]: 41 ± 5%; change in vivo at 0.3 mg/kg [5, 7]: -27 ± 6%; change in vivo at 3 mg/kg [5, 6]: 35 ± 2%; change in vivo at 3 mg/kg [5, 7]: -30 ± 2%
